Series [1] deals with mice. In words: Centrally-mediated hyperactivity / activity profile. It counts as in vivo, mouse. Conditions: for activity profile / hyperactivity vs vehicle group: single dose IP: rimonabant 10, TMP 35, EST 40, IDB 20 mg/kg. As for the experimental part: (§1) Locomotor activity. Locomotor activity was quantified by the number of disruptions of infrared XYZ beam arrays with a beam spacing of 0.25 cm in the Promethion High-Definition Behavioral Phenotyping System (Sable Instruments, Inc., Las Vegas, NV, USA).
Centrally-mediated hyperactivity profile. […] Mice were placed in metabolic cages and their activity profile was evaluated. Locomotor activity was quantified by the number of disruptions of infrared XYZ beam arrays with a beam spacing of 0.25 cm in the Promethion High-Definition Behavioral Phenotyping System (Sable Instruments, Inc., Las Vegas, NV, USA).

The target of series [2] is T1, CB1 receptor (Mus musculus, UniProt P47746).
T1 construct: crude membranes from mouse brain for CB1 receptor; from tissue; host or cells: mouse brain membranes (crude / P2)
T1 sequence (P47746 whole entry): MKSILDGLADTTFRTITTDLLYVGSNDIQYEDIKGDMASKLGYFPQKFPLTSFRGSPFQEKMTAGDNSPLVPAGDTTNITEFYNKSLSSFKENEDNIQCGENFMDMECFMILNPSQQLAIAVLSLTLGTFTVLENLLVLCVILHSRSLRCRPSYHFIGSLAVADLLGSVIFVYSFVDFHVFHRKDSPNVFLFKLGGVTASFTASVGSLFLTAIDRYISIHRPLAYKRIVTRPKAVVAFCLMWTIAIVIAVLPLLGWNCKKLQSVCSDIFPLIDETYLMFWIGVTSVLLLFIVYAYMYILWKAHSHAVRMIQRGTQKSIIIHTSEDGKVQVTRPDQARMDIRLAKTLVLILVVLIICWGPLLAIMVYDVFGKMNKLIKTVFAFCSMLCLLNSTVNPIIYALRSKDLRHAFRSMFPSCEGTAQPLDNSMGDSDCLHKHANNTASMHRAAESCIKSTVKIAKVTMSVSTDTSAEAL
As to the kind of experiment: [3H]CP-55,940 radioligand displacement assay. It counts as binding. As for the experimental part: Radioligand binding assays. BNS-002 binding to CB1 receptor was assessed in competition displacement assays using [^3H]CP-55,940 as the radioligand and crude membranes from mouse brain for CB1 receptor. All data were in triplicates with Ki values determined from three independent experiments.
Radioligand binding assay. Binding of the tested compounds to CB1 receptor was assessed in competition displacement assays using [3H]CP-55,940 as the radioligand and crude membranes from mouse brain for CB1 receptor. Membranes were extracted according to an established protocol previously described by Catani V. M. and Gasperi V.. Compounds were tested at different concentrations (10-5M-10-11M) and their ability to displace [3H]CP-55,940 was evaluated. Membranes with bound [3H]CP-55,940 were separated and washed from free ligand by vacuum filtration and bound [3H]CP-55,940 radioactivity was measured using a […]. All data were in triplicates with Ki values extracted by nonlinear regression analysis using GraphPad Prism software.

Series [3] relates to mice with diet-induced obesity (DIO). As to the kind of experiment: Serum lipids (dyslipidemia) in DIO mice. In kind it is in vivo, mouse. The settings on record: 20 mg/kg/day for 20 days. As for the experimental part: (§2) Blood and urine biochemistry. Serum and urine levels of creatinine as well as serum levels of ALT, AST, ALP, HDL, LDL, TG and cholesterol were determined by using the Cobas C-111 chemistry analyzer (Roche, Switzerland). Creatinine clearance was calculated using urine and serum creatinine levels (CCr mL/h=Urine creatinine mg/dL×Urine volume/Serum creatinine mg/dL×24 hrs). Serum insulin levels were measured by an ELISA kit (Crystal Chem, Inc., Downers Grove, IL, USA). Fasting blood glucose was measured using the Elite glucometer (Bayer, Pittsburgh, PA).

Series [4] concerns the target T1, CB1 receptor. As to the kind of experiment: [35S]GTPγS binding in mouse brain membranes. In kind it is biochemical. As for the experimental part: [^35S]GTPγS binding. Mouse brains were dissected and P2 membranes prepared and resuspended at ˜6 μg protein/μL in 1 ml assay buffer (50 mM Tris HCl, 9 mM MgCl2, 0.2 mM EGTA, 150 mM NaCl; pH 7.4). […] Briefly, membranes (10 μg protein) were incubated in assay buffer containing 100 μM GDP, 0.05 nM [^35S]GTPγS, test compounds at 1 nM-1 μM, and 1.4 mg/mL fatty acid-free BSA in siliconized glass tubes. Bound ligand was separated from free by vacuum filtration. Non-specific binding was determined using 10 μM GTPS. Basal binding was assayed in the absence of the ligand and in the presence of GDP.

The subject of series [5] is mice with diet-induced obesity (DIO). In words: HFD-induced hepatic steatosis and liver injury. In kind it is in vivo, mouse. As for the experimental part:
as §2
Histopathological Analyses. 5 μm paraffin-embedded liver sections from 5 animals per group were stained with hematoxylin-eosin staining. Liver images were captured with a Zeiss AxioCam ICc5 color camera mounted on a Zeiss Axio Scope.A1 light microscope and taken from 10 random 40× fields of each animal.

The test system is the same in series [6]. As to the kind of experiment: Glycemic control (ipGTT, ipIST, glucose, insulin) in DIO mice. In kind it is in vivo, mouse. On the procedure:
Glucose tolerance (ipGTT) test and insulin sensitivity tests (ipIST). Mice that fasted overnight were injected with glucose (1.5 g/kg, ip), followed by a tail blood collection at 0, 15, 30, 45, 60, 90, and 120 minutes. Blood glucose levels were determined using the Elite glucometer (Bayer, Pittsburgh, PA). On the following day, mice were fasted for 6 h before receiving insulin (0.75 U/kg, i.p.; Eli Lilly, […], USA or Actrapid® vial, novo nordisk A/S, Denmark), and blood glucose levels were determined at the same intervals as above.
as §2

Series [7] has the same test system. As to the kind of experiment: Body weight, adiposity and food intake in diet-induced obese mice. It counts as in vivo, mouse. The source says:
Mice. The experimental protocol used was approved by the Institutional Animal Care and Use Committee of the Hebrew University, which is an AAALAC International accredited institute. Male 6 week old C57Bl/6J mice were obtained from Harlan Laboratories. Mice were maintained under a 12-h light/dark cycle and fed ad libitum. To generate diet-induced obesity, C57Bl6/J mice were fed either a high-fat diet (HFD) (60% of calories from fat, 20% from protein, and 20% from carbohydrates; Research Diet, D12492) or a standard laboratory diet (STD, 14% fat, 24% protein, 62% carbohydrates; NIH-31 rodent diet) for 14 weeks.
Age-matched control mice on STD received vehicle daily. Body weight and food intake were monitored daily. Total body fat and lean masses were determined by EchoMRI-100H™ (Echo Medical Systems LLC, Houston, TX, USA). 24 h urine was collected one week before euthanasia using mouse metabolic cages (CCS2000 Chiller System, Hatteras Instruments, NC, USA). At weeks 20 mice were euthanized by a cervical dislocation under anesthesia, the kidneys, brain, liver, fat pads, and muscles were removed and weighed, and samples were either snap-frozen or fixed in buffered 4% formalin Trunk blood was collected for determining the biochemical parameters.

Series [8] shares this test system. In words: Multi-parameter metabolic assessment (indirect calorimetry) in DIO mice. It counts as in vivo, mouse. On the procedure: Multi-parameter metabolic assessment. Metabolic profile of the mice was assessed by using the Promethion High-Definition Behavioral Phenotyping System (Sable Instruments, Inc., Las Vegas, NV, USA). Data acquisition and instrument control were performed using MetaScreen software version 2.2.18.0, and the obtained raw data were processed using ExpeData version 1.8.4 using an analysis script detailing all aspects of data transformation. Mice with free access to food and water were subjected to a standard 12 h light/12 h dark cycle, which consisted of a 48 h acclimation period followed by 24 h of sampling. Respiratory gases were measured by using the GA-3 gas analyzer (Sable Systems, Inc., Las Vegas, NV, USA) using a pull-mode, negative-pressure system. Air flow was measured and controlled by FR-8 (Sable Systems, Inc., Las Vegas, NV, USA), with a set flow rate of 2000 mL/min. Water vapor was continuously measured and its dilution effect on O2 and CO2 was mathematically compensated. Effective mass was calculated by [body mass]^0.75. Fat oxidation (FO) and carbohydrate oxidation (CHO) were calculated as FO=1.69×VO2−1.69×VCO2 and CHO=4.57×VCO2−3.23×VO2 and expressed as g/d/kg^eff.Mass.

The test system is the same in series [9]. As to the kind of experiment: HFD-induced kidney hyperfiltration. It counts as in vivo, mouse. The settings on record: IDB, compared to the control. On the procedure:
as §2

Series [10] concerns mice. In words: Antagonizing cannabinoid (HU-210)-induced hypomotility. It counts as in vivo, mouse. On the procedure: as §1
Antagonizing cannabinoid-induced hypomotility. The ability of the different compounds to inhibit the hypomotility induced by HU210 (cannabinoid agonist) was evaluated. […] A half an hour thereafter, mice received a single dose of HU210 (30 ug/kg, IP) and their locomotor activity was evaluated as described above.

[11] abbreviates: mice on high-fat diet, 20 mg/kg/day for 20 days.
The mark [12] stands for this setting: DIO mice, 20 mg/kg/day for 20 days.

Read-outs that look alike come from different tables or passages of the source.

For `Cc1c(C(=O)OC2CC(C)(C)N([O])C(C)(C)C2)nn(-c2ccc(Cl)cc2Cl)c1-c1ccc(Cl)cc1` [EST, 2,2,6,6-tetramethyl-1-piperidin-4-yl 5-(4-chlorophenyl)-1-(2,4-dichlorophenyl)-4-methyl-1H-pyrazole-3-carboxylate], the “activity profile / hyperactivity vs vehicle group” value in the series with mice [1] was “no significant hyperactivity”. At CB1 receptor [2], the Ki is 0.37 to 7.81 nM.
Take `COC1=C(OC)C(=O)C(CCCCCCCCCCOC(=O)c2nn(-c3ccc(Cl)cc3Cl)c(-c3ccc(Cl)cc3)c2C)=C(C)C1=O` [IDB, 10-(4,5-dimethoxy-2-methyl-3,6-dioxocyclohexa-1,4-dien-1-yl)decyl 5-(4-chlorophenyl)-1-(2,4-dichlorophenyl)-4methyl-1H-pyrazole-3-carboxylate]: the “dyslipidemia in DIO mice” value in [3] is listed as “improve”. Besides, in series [3] (DIO mice), the HDL entry is “reduce”, the HDL-to-LDL ratio entry is “increase”, the LDL entry was “reduce” and the total cholesterol result is given as “reduce”. Moreover, the triglycerides result in series [3] (DIO mice) was “reduce”. The “activity profile / hyperactivity vs vehicle group” value in the series with mice [1] was “no significant hyperactivity”. Moreover, the “functional profile by GTPγS binding (inverse agonism)” value on CB1 receptor [4] is given as “inverse agonism profile”. In addition, in series [5] (20 mg/kg/day for 20 days), the “HFD-induced hepatic steatosis and liver injury” value is listed as “reduce”; the “liver enzymes (AST, ALT, and ALP)” value is given as “reduction”; the liver weight entry is given as “decrease”. In addition, on CB1 receptor [2] ([3H]CP-55,940, crude membranes from mouse brain, range of Ki values (FIGS. 12-14), read-out: Ki values varying for each substance, ranging from), the inhibition constant (Ki) fell in the range of 1.9 to 135 nM. Also, the Ki on CB1 receptor [2] ([3H]CP-55,940, crude membranes from mouse brain, read-out: Ki for CB1 receptor) turned out to be 256 nM. Besides, in series [6] (setting [11]), the fasting glucose levels entry is recorded as “reduced”, the fed glucose levels entry is recorded as “reduced”, the glucose tolerance entry is listed as “reduced” and the glycosuria entry is recorded as “increases”. Further, the insulin sensitivity entry in [6] (setting [11]) is on record as “improved”. For the same compound, in [7] (setting [12]), the body weight entry is on record as “reduced”; the “daily and total food intake” value is recorded as “reduced”; the fat mass result is “reduced”; the lean mass entry is listed as “increased”. Besides, in [8] (20 mg/kg/day for 20 days, over a 24 hr period), the “metabolic parameters (respiratory quotient, VO2, VCO2, total energy expenditure, fat oxidation, carbohydrate oxidation)” value is recorded as “significant changes”. Moreover, the HFD-induced kidney hyperfiltration entry in series [9] is “no effect”.
For the compound `Cc1c(C(=O)NC2CC(C)(C)N([O])C(C)(C)C2)nn(-c2ccc(Cl)cc2Cl)c1-c1ccc(Cl)cc1` [TMP, 5-(4-chlorophenyl)-1-(2,4-dichlorophenyl)-4-methyl-N-(2,2,6,6-tetramethyl-1-oxo-1-piperidin-4-yl)-1H-pyrazole-3-carboxamide], the “activity profile / hyperactivity vs vehicle group” value with mice [1] is given as “no significant hyperactivity”. The compound also had an inhibitory constant (Ki) on CB1 receptor [2] of 1.69 to 446 nM.
For the compound `Cc1c(C(=O)NN2CCCCC2)nn(-c2ccc(Cl)cc2Cl)c1-c1ccc(Cl)cc1` [rimonabant, reference compound], the “activity profile in mice” value in the series with mice [1] (rimonabant 10 mg/kg ip, BNS-002 10, 20 and 50 mg/kg ip) was “marked increase”. Further, the “activity profile / hyperactivity vs vehicle group” value in the series on mice [1] was “marked increase”. In addition, the “HFD-induced hepatic steatosis (fat vacuoles in the liver)” value in series [5] (DIO mice, 10 mg/kg/d ip) is on record as “completely reversed”. Also, in series [6] (DIO mice, 10 mg/kg/d ip), the HFD-induced glucose intolerance entry was “completely reversed” and the HFD-induced hyperglycemia entry is “completely reversed”. Moreover, in series [7] (10 mg/kg/d ip, 28 days), the “increased adiposity of mice on HFD” value is given as “significantly reduced” and the “overweight of mice on HFD” value was “significantly reduced”. Further, in series [7] (7 days, rimonabant 10 mg/kg/d, BNS-002 30 mg/kg ip), the “overweight of mice on HFD” value is given as “significantly reduced”. Also, in [7] (DIO mice, 10 mg/kg/d ip), the total caloric intake result was “ability to reduce”. Moreover, in [8] (DIO mice, 10 mg/kg/d ip), the “HFD-induced reduction in VO2” value is “upregulate”, the “HFD-induced reduction in fat oxidation” value is “upregulate” and the “HFD-induced reduction in total energy expenditure” value was “upregulate”. The “hypomotility induced by HU210” value in the series with mice [10] (HU210 30 ug/kg IP, rimonabant 10, TMP 35, EST 40, IDB 20 mg/kg IP) is on record as “significantly blocked”. Further, the “increase in immobility induced by HU-210” value with mice [10] (HU-210 30 μg/kg ip, rimonabant 10 mg/kg ip, BNS-002 10, 20 and 50 mg/kg) is reported as “completely blocked”.

The values above are taken from patent US12473270B2, “CB1R receptor blockers with acyclic backbones” (YISSUM RESEARCH DEVELOPMENT COMPANY OF THE HEBREW …, priority 2019, dated 2025).
